Test results: ChEMBL document CHEMBL4819140, “A novel GSK-3 inhibitor binds to GSK-3β via a reversible, time and Cys-199-dependent mechanism” (Bioorg Med Chem, 2021)
One block for each compound: values may come before it. Calls of active or inactive are those of the source. The rule behind the calls is not given here.

Columns and labels:
[1] = molecular target: T1, Glycogen synthase kinase-3 beta (Homo sapiens, UniProt P49841); settings: dose 400.0 nM, time 4.5 hrs
Target sequence in this assay (P49841 whole entry, looked up): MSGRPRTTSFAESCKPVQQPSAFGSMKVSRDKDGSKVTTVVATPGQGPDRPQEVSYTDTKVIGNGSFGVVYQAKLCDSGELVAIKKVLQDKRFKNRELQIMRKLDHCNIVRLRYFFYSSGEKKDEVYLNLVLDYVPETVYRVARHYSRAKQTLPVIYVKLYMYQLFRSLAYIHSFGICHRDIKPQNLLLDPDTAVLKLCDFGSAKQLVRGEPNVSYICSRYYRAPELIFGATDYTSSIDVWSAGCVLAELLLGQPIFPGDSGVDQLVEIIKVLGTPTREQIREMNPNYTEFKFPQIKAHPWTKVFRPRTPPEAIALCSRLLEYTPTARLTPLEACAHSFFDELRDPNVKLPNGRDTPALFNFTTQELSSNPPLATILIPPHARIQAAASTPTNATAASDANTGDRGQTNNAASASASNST

[2] = molecular target: T1, Glycogen synthase kinase-3 beta; experiment: Inhibition of human GSK-3beta incubated with substrate in presence of ATP measured by serial dilution assay
Target sequence in this assay (P49841 whole entry): as the sequence (P49841 whole entry, looked up) above

[3] = molecular target: T1, Glycogen synthase kinase-3 beta; experiment: Inhibition of human GSK-3beta preincubated for 3 hrs followed by ATP and substrate addition measured by serial dilution assay
Target sequence in this assay (P49841 whole entry): as the sequence (P49841 whole entry, looked up) above

[4] = molecular target: T1, Glycogen synthase kinase-3 beta; settings: dose 700.0 nM
Target sequence in this assay (P49841 whole entry, looked up): as above
Description: Reversible inhibition of recombinant human GSK-3beta at 700 nM incubated with substrate and ATP master mix solution by jump dilution assays

[5] = molecular target: T1, Glycogen synthase kinase-3 beta; settings: dose 200.0 nM
Target sequence in this assay (P49841 whole entry, looked up): as above

[6] = molecular target: T1, Glycogen synthase kinase-3 beta; settings: dose 100.0 nM
Target sequence in this assay (P49841 whole entry, looked up): as above

[7] = molecular target: T1, Glycogen synthase kinase-3 beta; experiment: Inhibition of human GSK-3beta assessed as decrease in relative fluorescence unit measured upto 60 mins by kinase-profiling analysis; settings: time min <=60, TDE = time-dependent effect
Target sequence in this assay (P49841 whole entry, looked up): as above

[8] = molecular target: T1, Glycogen synthase kinase-3 beta; experiment: Reversible inhibition of recombinant human GSK-3beta at 10 uM preincubated for 3 hrs followed by diluted with substrate and ATP master mix solution measured upto 1.5 hrs by jump dilution assays; settings: time 4.5 hrs, TDE = time-dependent effect
Target sequence in this assay (P49841 whole entry, looked up): as above

[9] = molecular target: T1, Glycogen synthase kinase-3 beta; experiment: Reversible inhibition of recombinant human GSK-3beta at 10 uM preincubated for 3 hrs followed by diluted with substrate and ATP master mix solution measured first 30 mins by jump dilution assays; settings: time 3.5 hrs
[10] = molecular target: T1, Glycogen synthase kinase-3 beta; experiment: Reversible inhibition of recombinant human GSK-3beta at 70 uM preincubated for 3 hrs followed by diluted with substrate and ATP master mix solution measured upto 1.5 hrs by jump dilution assays relative to control; settings: time 4.5 hrs
[11] = molecular target: AP2-associated protein kinase 1 (Homo sapiens) (UniProt Q2M2I8); experiment: Inhibition of human recombinant AAK1 by Lanthascreen assay; settings: concentration not given here
[12] = molecular target: Cyclin-dependent kinase-like 5 (Homo sapiens) (UniProt O76039); experiment: Inhibition of human recombinant CDKL5 in presence of ATP by Z-lyte kinase assay; settings: concentration not given here
[13] = molecular target: Vascular endothelial growth factor receptor 1 (Homo sapiens) (UniProt P17948); experiment: Inhibition of human recombinant FLT1 in presence of ATP by Z-lyte kinase assay; settings: concentration not given here
[14] = molecular target: Receptor-type tyrosine-protein kinase FLT3 (Homo sapiens) (UniProt P36888); experiment: Inhibition of human recombinant FLT3 in presence of ATP by Z-lyte kinase assay; settings: concentration not given here
[15] = molecular target: Vascular endothelial growth factor receptor 3 (Homo sapiens) (UniProt P35916); experiment: Inhibition of human recombinant FLT4 in presence of ATP by Z-lyte kinase assay; settings: concentration not given here
[16] = molecular target: Cyclin-G-associated kinase (Homo sapiens) (UniProt O14976); experiment: Inhibition of human recombinant GAK by Lanthascreen assay; settings: concentration not given here
[17] = molecular target: Glycogen synthase kinase-3 alpha (Homo sapiens) (UniProt P49840); experiment: Inhibition of human recombinant GSK3A in presence of ATP by Z-lyte kinase assay; settings: concentration not given here
[18] = molecular target: T1, Glycogen synthase kinase-3 beta; experiment: Inhibition of human recombinant GSK3B in presence of ATP by Z-lyte kinase assay; settings: concentration not given here
[19] = molecular target: Mast/stem cell growth factor receptor Kit (Homo sapiens) (UniProt P10721); experiment: Inhibition of human recombinant KIT in presence of ATP by Z-lyte kinase assay; settings: concentration not given here
[20] = molecular target: Dual specificity mitogen-activated protein kinase kinase 1 (Homo sapiens) (UniProt Q02750); experiment: Inhibition of human recombinant MAP2K1 in presence of ATP by Z-lyte kinase assay; settings: concentration not given here
Chain of Dual specificity mitogen-activated protein kinase kinase 1 (Homo sapiens) (Q02750 whole entry): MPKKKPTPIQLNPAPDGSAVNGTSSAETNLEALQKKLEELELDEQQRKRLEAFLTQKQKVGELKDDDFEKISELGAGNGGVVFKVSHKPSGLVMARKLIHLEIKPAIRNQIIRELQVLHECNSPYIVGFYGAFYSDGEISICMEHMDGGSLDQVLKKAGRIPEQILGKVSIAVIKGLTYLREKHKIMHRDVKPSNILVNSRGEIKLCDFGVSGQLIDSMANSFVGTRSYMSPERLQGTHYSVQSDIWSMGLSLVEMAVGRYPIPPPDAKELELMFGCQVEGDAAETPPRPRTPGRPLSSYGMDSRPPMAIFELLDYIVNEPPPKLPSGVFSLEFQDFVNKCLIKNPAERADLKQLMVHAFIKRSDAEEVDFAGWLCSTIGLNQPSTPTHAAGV

[21] = molecular target: Dual specificity mitogen-activated protein kinase kinase 1 (Homo sapiens) (UniProt Q02750); experiment: Inhibition of human recombinant MAP2K1 by Lanthascreen assay; settings: concentration not given here
[22] = molecular target: Dual specificity mitogen-activated protein kinase kinase 2 (Homo sapiens) (UniProt P36507); experiment: Inhibition of human recombinant MAP2K2 in presence of 100 uM ATP by Z-lyte kinase assay
Chain of Dual specificity mitogen-activated protein kinase kinase 2 (Homo sapiens) (P36507 whole entry): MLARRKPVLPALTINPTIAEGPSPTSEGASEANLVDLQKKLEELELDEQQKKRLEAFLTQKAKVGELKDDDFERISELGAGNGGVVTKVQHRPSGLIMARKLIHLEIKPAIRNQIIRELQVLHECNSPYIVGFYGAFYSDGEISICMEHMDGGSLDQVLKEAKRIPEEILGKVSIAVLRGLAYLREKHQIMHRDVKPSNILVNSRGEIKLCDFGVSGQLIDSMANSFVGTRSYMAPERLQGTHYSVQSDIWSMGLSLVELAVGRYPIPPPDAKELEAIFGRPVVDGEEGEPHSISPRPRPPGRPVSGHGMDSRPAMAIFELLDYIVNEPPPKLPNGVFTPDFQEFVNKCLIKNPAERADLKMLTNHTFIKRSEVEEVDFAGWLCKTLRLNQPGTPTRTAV

[23] = molecular target: Dual specificity mitogen-activated protein kinase kinase 2 (Homo sapiens) (UniProt P36507); experiment: Inhibition of human recombinant MAP2K2 by Lanthascreen assay; settings: concentration not given here
[24] = molecular target: Dual specificity mitogen-activated protein kinase kinase 3 (Homo sapiens) (UniProt P46734); experiment: Inhibition of human recombinant MAP2K3 by Lanthascreen assay; settings: concentration not given here
[25] = molecular target: Dual specificity mitogen-activated protein kinase kinase 4 (Homo sapiens) (UniProt P45985); experiment: Inhibition of human recombinant MAP2K4 by Lanthascreen assay; settings: concentration not given here
[26] = molecular target: Dual specificity mitogen-activated protein kinase kinase 5 (Homo sapiens) (UniProt Q13163); experiment: Inhibition of human recombinant MAP2K5 by Lanthascreen assay; settings: concentration not given here
[27] = molecular target: Mitogen-activated protein kinase kinase kinase 7 (Homo sapiens) (UniProt O43318); experiment: Inhibition of human recombinant MAP3K7 by Lanthascreen assay; settings: concentration not given here
[28] = molecular target: Mitogen-activated protein kinase 1 (Homo sapiens) (UniProt P28482); experiment: Inhibition of human recombinant MAPK1 in presence of ATP by Z-lyte kinase assay; settings: concentration not given here
[29] = molecular target: Mitogen-activated protein kinase 15 (Homo sapiens) (UniProt Q8TD08); experiment: Inhibition of human recombinant MAPK15 by Lanthascreen assay; settings: concentration not given here
[30] = molecular target: Mitogen-activated protein kinase 3 (Homo sapiens) (UniProt P27361); experiment: Inhibition of human recombinant MAPK3 in presence of ATP by Z-lyte kinase assay; settings: concentration not given here
[31] = molecular target: MAP kinase-activated protein kinase 5 (Homo sapiens) (UniProt Q8IW41); experiment: Inhibition of human recombinant PRAK in presence of ATP by Z-lyte kinase assay; settings: concentration not given here
[32] = molecular target: MAP kinase-interacting serine/threonine-protein kinase 1 (Homo sapiens) (UniProt Q9BUB5); experiment: Inhibition of human recombinant MNK1 in presence of ATP by Z-lyte kinase assay; settings: concentration not given here
Chain of MAP kinase-interacting serine/threonine-protein kinase 1 (Homo sapiens) (Q9BUB5 whole entry, looked up): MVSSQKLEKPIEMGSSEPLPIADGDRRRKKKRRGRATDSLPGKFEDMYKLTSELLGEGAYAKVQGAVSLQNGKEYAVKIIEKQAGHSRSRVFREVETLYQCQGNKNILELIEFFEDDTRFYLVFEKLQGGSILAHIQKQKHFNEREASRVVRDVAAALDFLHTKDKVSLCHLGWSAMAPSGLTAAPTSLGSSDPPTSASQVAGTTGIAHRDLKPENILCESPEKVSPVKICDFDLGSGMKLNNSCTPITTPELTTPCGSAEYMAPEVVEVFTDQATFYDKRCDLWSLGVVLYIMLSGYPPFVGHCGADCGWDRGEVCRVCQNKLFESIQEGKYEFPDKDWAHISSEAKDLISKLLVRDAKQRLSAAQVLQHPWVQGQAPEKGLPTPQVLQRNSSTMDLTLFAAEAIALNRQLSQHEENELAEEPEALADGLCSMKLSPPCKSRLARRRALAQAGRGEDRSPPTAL

[33] = molecular target: MAP kinase-interacting serine/threonine-protein kinase 2 (Homo sapiens) (UniProt Q9HBH9); experiment: Inhibition of human recombinant MNK2 by Lanthascreen assay; settings: concentration not given here
[34] = molecular target: Serine/threonine-protein kinase NLK (Homo sapiens) (UniProt Q9UBE8); experiment: Inhibition of human recombinant NLK by Lanthascreen assay; settings: concentration not given here
Chain of Serine/threonine-protein kinase NLK (Homo sapiens) (Q9UBE8 whole entry): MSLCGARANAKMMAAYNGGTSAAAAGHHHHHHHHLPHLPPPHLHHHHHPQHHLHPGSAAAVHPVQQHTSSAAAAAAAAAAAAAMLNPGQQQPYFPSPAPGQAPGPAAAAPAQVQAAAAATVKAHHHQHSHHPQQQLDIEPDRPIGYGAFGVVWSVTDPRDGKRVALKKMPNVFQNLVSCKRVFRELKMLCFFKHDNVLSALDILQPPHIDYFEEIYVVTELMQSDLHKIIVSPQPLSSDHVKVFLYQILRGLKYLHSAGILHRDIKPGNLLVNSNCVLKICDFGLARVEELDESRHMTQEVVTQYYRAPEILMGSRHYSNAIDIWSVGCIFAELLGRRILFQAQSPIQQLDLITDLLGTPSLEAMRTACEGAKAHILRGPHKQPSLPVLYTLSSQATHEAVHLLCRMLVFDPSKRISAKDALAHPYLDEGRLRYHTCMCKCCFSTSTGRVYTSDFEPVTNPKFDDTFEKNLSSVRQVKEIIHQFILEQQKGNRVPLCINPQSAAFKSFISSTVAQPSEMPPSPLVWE

[35] = molecular target: Platelet-derived growth factor receptor alpha (Homo sapiens) (UniProt P16234); experiment: Inhibition of human recombinant PDGFRA in presence of ATP by Z-lyte kinase assay; settings: concentration not given here
Chain of Platelet-derived growth factor receptor alpha (Homo sapiens) (P16234 whole entry): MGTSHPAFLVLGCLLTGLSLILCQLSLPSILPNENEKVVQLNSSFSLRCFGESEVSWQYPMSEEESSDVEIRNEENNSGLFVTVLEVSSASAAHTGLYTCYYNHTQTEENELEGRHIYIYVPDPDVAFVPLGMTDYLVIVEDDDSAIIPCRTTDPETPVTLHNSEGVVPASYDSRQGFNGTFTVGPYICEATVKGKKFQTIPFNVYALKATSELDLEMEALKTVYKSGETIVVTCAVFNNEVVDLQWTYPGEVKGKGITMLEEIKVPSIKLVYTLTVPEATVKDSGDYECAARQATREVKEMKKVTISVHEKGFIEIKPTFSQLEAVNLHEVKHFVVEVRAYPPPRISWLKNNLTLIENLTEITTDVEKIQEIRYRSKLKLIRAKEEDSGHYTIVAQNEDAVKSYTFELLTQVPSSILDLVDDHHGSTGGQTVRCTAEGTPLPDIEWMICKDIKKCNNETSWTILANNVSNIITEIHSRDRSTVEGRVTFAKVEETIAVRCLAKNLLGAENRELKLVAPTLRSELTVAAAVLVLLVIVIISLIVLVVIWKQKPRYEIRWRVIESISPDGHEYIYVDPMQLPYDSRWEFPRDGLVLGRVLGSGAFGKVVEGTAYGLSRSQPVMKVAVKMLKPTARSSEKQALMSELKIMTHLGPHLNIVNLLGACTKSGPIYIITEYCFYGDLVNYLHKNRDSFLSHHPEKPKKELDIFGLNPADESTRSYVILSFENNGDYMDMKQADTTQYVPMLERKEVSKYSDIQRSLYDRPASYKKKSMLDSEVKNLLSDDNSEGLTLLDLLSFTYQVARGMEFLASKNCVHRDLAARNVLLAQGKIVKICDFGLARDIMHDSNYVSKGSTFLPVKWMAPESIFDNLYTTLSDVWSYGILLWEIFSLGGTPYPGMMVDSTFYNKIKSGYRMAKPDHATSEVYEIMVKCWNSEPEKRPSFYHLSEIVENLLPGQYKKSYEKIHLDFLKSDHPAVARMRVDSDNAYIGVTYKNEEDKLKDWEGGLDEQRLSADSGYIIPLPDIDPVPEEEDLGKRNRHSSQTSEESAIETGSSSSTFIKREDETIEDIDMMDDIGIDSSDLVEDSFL

[36] = molecular target: Platelet-derived growth factor receptor beta (Homo sapiens) (UniProt P09619); experiment: Inhibition of human recombinant PDGFRB in presence of ATP by Z-lyte kinase assay; settings: concentration not given here
[37] = molecular target: Serine/threonine-protein kinase D3 (Homo sapiens) (UniProt O94806); experiment: Inhibition of human recombinant PKD3 in presence of ATP by Z-lyte kinase assay; settings: concentration not given here
[38] = molecular target: Serine/threonine-protein kinase D2 (Homo sapiens) (UniProt Q9BZL6); experiment: Inhibition of human recombinant PKD2 in presence of ATP by Z-lyte kinase assay; settings: concentration not given here
[39] = molecular target: Ribosomal protein S6 kinase alpha-1 (Homo sapiens) (UniProt Q15418); experiment: Inhibition of human recombinant RSK1 in presence of ATP by Z-lyte kinase assay; settings: concentration not given here
[40] = molecular target: Ribosomal protein S6 kinase alpha-2 (Homo sapiens) (UniProt Q15349); experiment: Inhibition of human recombinant RSK3 in presence of ATP by Z-lyte kinase assay; settings: concentration not given here
[41] = molecular target: Ribosomal protein S6 kinase alpha-3 (Homo sapiens) (UniProt P51812); experiment: Inhibition of human recombinant RSK2 in presence of ATP by Z-lyte kinase assay; settings: concentration not given here
Chain of Ribosomal protein S6 kinase alpha-3 (Homo sapiens) (P51812 whole entry): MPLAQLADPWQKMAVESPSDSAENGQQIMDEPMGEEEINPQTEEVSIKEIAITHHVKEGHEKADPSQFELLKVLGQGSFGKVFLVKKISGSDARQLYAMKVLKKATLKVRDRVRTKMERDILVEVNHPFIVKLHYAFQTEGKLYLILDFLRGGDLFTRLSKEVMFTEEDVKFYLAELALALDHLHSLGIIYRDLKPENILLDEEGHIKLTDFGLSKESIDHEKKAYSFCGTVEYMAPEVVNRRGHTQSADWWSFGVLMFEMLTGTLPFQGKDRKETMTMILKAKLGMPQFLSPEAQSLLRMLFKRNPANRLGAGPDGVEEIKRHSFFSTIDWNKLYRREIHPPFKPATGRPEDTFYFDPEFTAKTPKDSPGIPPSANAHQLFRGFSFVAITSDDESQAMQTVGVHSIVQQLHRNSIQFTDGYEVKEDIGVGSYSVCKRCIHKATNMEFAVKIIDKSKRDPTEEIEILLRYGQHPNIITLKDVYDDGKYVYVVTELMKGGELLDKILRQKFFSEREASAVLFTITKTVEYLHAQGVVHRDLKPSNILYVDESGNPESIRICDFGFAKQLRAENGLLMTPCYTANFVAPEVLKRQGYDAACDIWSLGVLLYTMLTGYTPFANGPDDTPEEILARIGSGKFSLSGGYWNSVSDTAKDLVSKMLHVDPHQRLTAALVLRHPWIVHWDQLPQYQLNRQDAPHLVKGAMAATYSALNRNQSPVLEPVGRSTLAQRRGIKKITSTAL

[42] = molecular target: Ribosomal protein S6 kinase alpha-6 (Homo sapiens) (UniProt Q9UK32); experiment: Inhibition of human recombinant RSK4 in presence of ATP by Z-lyte kinase assay; settings: concentration not given here
[43] = molecular target: TGF-beta receptor type-2 (Homo sapiens) (UniProt P37173); experiment: Inhibition of human recombinant TGFBR2 by Lanthascreen assay; settings: concentration not given here
[44] = molecular target: Mitogen-activated protein kinase kinase kinase 20 (Homo sapiens) (UniProt Q9NYL2); experiment: Inhibition of human recombinant ZAK by Lanthascreen assay; settings: concentration not given here
[45] = molecular target: Glycogen synthase kinase-3 beta (Homo sapiens, UniProt P49841, C199A); experiment: Inhibition of human GSK-3beta C199A mutant incubated with substrate in presence of ATP measured by serial dilution assay
[46] = Thiol reactivity of the compound with ethanethiol DTT by HPLC analysis; type: physicochemical
[47] = Thiol reactivity of the compound with tri-butylphosphine by HPLC analysis; type: physicochemical

inhibition [1]: Active
Structure (SMILES): O=C1Cc2c([nH]c3ccc([N+](=O)[O-])cc23)-c2ccccc2N1

Structure (SMILES): COc1cc(O)c2c(c1)[C@H]1O[C@@H]1C[C@H](O)[C@H](O)C(=O)/C=C\C[C@H](C)OC2=O [HYPOTHEMYCIN]
IC50 [2]: 11300 nM | IC50 [3]: 663 nM | inhibition [4]: inactive | inhibition [5]: inactive | inhibition [6]: inactive

inhibition [7]: Tde | inhibition [8]: Tde | inhibition [9]: Active | inhibition [10]: Active | IC50 [2]: 370 nM | IC50 [3]: 102 nM | inhibition [11]: 11% | inhibition [12]: 3.2% | inhibition [13]: 0% | inhibition [14]: 2% | inhibition [15]: 1.9% | inhibition [16]: 24% | inhibition [17]: 91% | inhibition [18]: 89% | inhibition [19]: 4% | inhibition [20]: 6% | inhibition [21]: 5% | inhibition [22]: 7% | inhibition [23]: 4% | inhibition [24]: 7% | inhibition [25]: 12% | inhibition [26]: 1% | inhibition [27]: 21% | inhibition [28]: 29% | inhibition [30]: 26% | inhibition [31]: 60% | inhibition [32]: -2% | inhibition [33]: 1% | inhibition [34]: 24% | inhibition [35]: -2% | inhibition [36]: -2% | inhibition [37]: 10% | inhibition [38]: 11% | inhibition [39]: 6% | inhibition [40]: 9% | inhibition [41]: 11% | inhibition [42]: 18% | inhibition [43]: 20% | inhibition [44]: 9% | IC50 [45]: 121000 nM | Drug metabolism [46]: Metabolite_Notdetected | Drug metabolism [47]: Metabolite_Notdetected | inhibition [4]: inactive | inhibition [5]: inactive | inhibition [6]: inactive
Structure (SMILES): OC1(c2ccccc2)CSC(=S)N1Cc1ccncc1 (configuration not stated)
inhibition [29]: 26%
